Results as given in patent publication US8778920B2, “3-cyano-quinoline derivatives with antiproliferative activity” (Janssen Pharmaceutica NV, priority 2004, dated 2014).
Counter-ions that a name gives are not always drawn.

System: ovarian carcinoma cell line (SKOV3)
Test: Serum starved, EGF stimulated proliferation assay on ovarian carcinoma SKOV3 cells (MTT)
Format: cell-based
Conditions: Homo sapiens, SK-OV-3, serum free, 72 hours EGF 100 ng/ml, b231 calls the values pIC50, read-out: SKOV3 cell (C3): IC50 (converted)
Method: The ovarian carcinoma cell line (SKOV3) was used in an epidermal growth factor stimulated cell proliferation assay, to assess the inhibitory effect of the compounds on EGF in whole cells. In a first step the SKOV3 cells were incubated for 24 hours in the presence of 10% FCS serum. In the second step the cells were incubated with the compounds to be tested in a serum free condition (37° C. and 5% (v/v) CO2) and subsequently stimulated for 72 hours with EGF at a final concentration of 100 ng/ml. The effect of the compounds on the EGF stimulation was finally assessed in a standard MTT cell viability assay.

An IC50 of 0.158 µM was found for COc1cc2ncc(C#N)c3c2cc1OCCCCCNCc1ccc(Br)cc1N3 [Compound 2, 4,6-ethanediylidenepyrido[4,3-b][6,1,12]benzoxadiazacyclopentadecine-1-carbonitrile, 17-bromo-8,9,10,11,12,13,14,19-octahydro-20-methoxy-, monohydrochloride] in this work.
